# Like-named read-outs stand apart in the source and are kept apart here.
# Target: LC3B (Homo sapiens, UniProt Q9GZQ8)
# Conditions: LC3B:ligand molar ratio 1:2
compound,measurement,setting,value
"Cc1ccc(C(=O)N(CCCN)[C@@H](c2nc3cc(Cl)ccc3c(=O)n2Cc2ccccc2)C(C)C)cc1 [compound 3, (R)-N-(3-aminopropyl)-N-(1-(3-benzyl-7-chloro-4-oxo-3,4-dihydroquinazolin-2-yl)−2-methylpropyl)−4-methylbenzamide]",CSP,LC3B residue A75,0.00171 ppm
same,CSP,LC3B residue A78,0.000906 ppm
same,CSP,LC3B residue A114,0.00141 ppm
same,CSP,LC3B residue D19,0.000707 ppm
same,CSP,LC3B residue D48,0.010 ppm
same,CSP,LC3B residue D56,0.00434 ppm
same,CSP,LC3B residue D104,0.002 ppm
same,CSP,LC3B residue D106,0.005 ppm
same,CSP,LC3B residue E14,0.00152 ppm
same,CSP,LC3B residue E18,0.003 ppm
same,CSP,LC3B residue E25,0.00212 ppm
same,CSP,LC3B residue E36,0.00158 ppm
same,CSP,LC3B residue E41,0.0011 ppm
same,CSP,LC3B residue E62,0.00213 ppm
same,CSP,LC3B residue E97,0.005 ppm
same,CSP,LC3B residue E100,0.004 ppm
same,CSP,LC3B residue E102,0.000721 ppm
same,CSP,LC3B residue E105,0.00232 ppm
same,CSP,LC3B residue E117,0.00224 ppm
same,CSP,LC3B residue F07,0.00141 ppm
same,CSP,LC3B residue F13,0.000721 ppm
same,CSP,LC3B residue F52,0.011 ppm
same,CSP,LC3B residue F108,0.006 ppm
same,CSP,LC3B residue F119,0.00255 ppm
same,CSP,"LC3B residue G40, estimated",0.002 ppm
same,CSP,LC3B residue G107,0.002 ppm
same,CSP,LC3B residue H27,0.00453 ppm
same,CSP,LC3B residue H57,0.00237 ppm
same,CSP,LC3B residue I23,0.00158 ppm
same,CSP,LC3B residue I31,0.00281 ppm
same,CSP,LC3B residue I34,0.00571 ppm
same,CSP,LC3B residue I35,0.00158 ppm
same,CSP,LC3B residue I64,0.00474 ppm
same,CSP,LC3B residue I66,0.000721 ppm
same,CSP,LC3B residue I67,0.003 ppm
same,CSP,LC3B residue K08,0.00364 ppm
same,CSP,LC3B residue K30,0.000762 ppm
same,CSP,LC3B residue K39,0.00212 ppm
same,CSP,LC3B residue K42,0.00255 ppm
same,CSP,LC3B residue K49,0.00665 ppm
same,CSP,LC3B residue K51,0.00356 ppm
same,CSP,LC3B residue K65,0.00216 ppm
same,CSP,LC3B residue K103,0.00165 ppm
same,CSP,LC3B residue L22,0.002 ppm
same,CSP,LC3B residue L44,0.006 ppm
same,CSP,LC3B residue L47,0.009 ppm
same,CSP,LC3B residue L53,0.007 ppm
same,CSP,LC3B residue L63,0.004 ppm
same,CSP,LC3B residue L71,0.000566 ppm
same,CSP,LC3B residue L73,0.000849 ppm
same,CSP,LC3B residue L109,0.00144 ppm
same,CSP,"LC3B residue M01, estimated",0.002 ppm
same,CSP,LC3B residue M60,0.00216 ppm
same,CSP,LC3B residue M111,0.00255 ppm
same,CSP,LC3B residue N59,0.009 ppm
same,CSP,LC3B residue N74,0.00173 ppm
same,CSP,LC3B residue N76,0.00171 ppm
same,CSP,"LC3B residue P02, estimated",0.002 ppm
same,CSP,"LC3B residue P28, estimated",0.005 ppm
same,CSP,"LC3B residue P32, estimated",0.003 ppm
same,CSP,"LC3B residue P45, estimated",0.005 ppm
same,CSP,"LC3B residue P55, estimated",0.006 ppm
same,CSP,LC3B residue Q09,0.00173 ppm
same,CSP,LC3B residue Q15,0.00158 ppm
same,CSP,LC3B residue Q26,0.003 ppm
same,CSP,LC3B residue Q43,0.00158 ppm
same,CSP,LC3B residue Q72,0.00243 ppm
same,CSP,LC3B residue Q77,0.0011 ppm
same,CSP,LC3B residue Q116,0.00181 ppm
same,CSP,LC3B residue R10,0.00165 ppm
same,CSP,LC3B residue R11,0.0024 ppm
same,CSP,LC3B residue R16,0.00181 ppm
same,CSP,LC3B residue R21,0.002 ppm
same,CSP,LC3B residue R24,0.000424 ppm
same,CSP,LC3B residue R37,0.00181 ppm
same,CSP,LC3B residue R68,0.00643 ppm
same,CSP,LC3B residue R69,0.00362 ppm
same,CSP,LC3B residue R70,0.00566 ppm
same,CSP,"LC3B residue S03, estimated",0.002 ppm
same,CSP,LC3B residue S61,0.00376 ppm
same,CSP,LC3B residue S96,0.004 ppm
same,CSP,LC3B residue S101,0.00148 ppm
same,CSP,LC3B residue S115,0.00122 ppm
same,CSP,LC3B residue T06,0.00255 ppm
same,CSP,LC3B residue T12,0.006 ppm
same,CSP,"LC3B residue T29, estimated",0.002 ppm
same,CSP,LC3B residue T50,0.008 ppm
same,CSP,LC3B residue T118,0.00152 ppm
same,CSP,LC3B residue V17,0.0011 ppm
same,CSP,LC3B residue V20,0.00281 ppm
same,CSP,LC3B residue V33,0.00472 ppm
same,CSP,LC3B residue V46,0.00449 ppm
same,CSP,LC3B residue V54,0.009 ppm
same,CSP,LC3B residue V58,0.00542 ppm
same,CSP,LC3B residue V98,0.00173 ppm
same,CSP,LC3B residue V112,0.00638 ppm
same,CSP,LC3B residue Y38,0.00165 ppm
same,CSP,LC3B residue Y99,0.00144 ppm
same,CSP,LC3B residue Y110,0.00214 ppm
same,CSP,LC3B residue Y113,0.00232 ppm
